The values that follow are results of earlier work, collected in patent US20110052647A1, “Antidepressant Oral Pharmaceutical Compositions” (priority 2005, published 2011).

SMILES strings stand for the structures.

For data set [1] the following is noted: oral administration of capsules containing enteric-coated pellets.
Data set [2] concerns dopaminergic, adrenergic, cholinergic or histaminergic receptors. The following applies: in vitro.
Assay in data set [3]: not given
The source holds these as a separate data set.

On to `CNCC[C@H](Oc1cccc2ccccc12)c1cccs1` [Duloxetine, (S)-N-methyl-3-(1-naphthyloxy)-3-(2-thienyl)propan-1-amine], for which, in data set [1], the “mean plasma elimination half-life” value is 12.1 h and the “median time to maximum concentration (Tmax)” value is 6 h. Further, the “affinity for dopaminergic, adrenergic, cholinergic or histaminergic receptors” value in data set [2] is on record as “no significant affinity”. In addition, the “inhibition of monoamine oxidase (MAO)” value with monoamine oxidase (MAO) is “does not inhibit”. For the setting “pH of 1.0, within one hour”, the “dosage hydrolyzed to 1-naphthol” value is on record as 50%. Moreover, the “dosage degrades to 1-Naphthol” value (pH of 2.0, in one hour) was 10%. Moreover, under “pH of 4.0”, the “time for 10% degradation” value is on record as “up to 63 hours”. In data set [3], the “pH values at which unstable in solution” value was “less than 2.5”.
